Results on eleven compounds are retold here after patent publication US8772343B2, “Chemical compounds” (Pfizer Limited, priority 2010, dated 2014).

The target in the assay is T1, Nav1.7 (or SCN9A) channel (Homo sapiens, UniProt Q15858).
T1 construct: expressed in transfected cells
T1 sequence (Q15858 whole entry): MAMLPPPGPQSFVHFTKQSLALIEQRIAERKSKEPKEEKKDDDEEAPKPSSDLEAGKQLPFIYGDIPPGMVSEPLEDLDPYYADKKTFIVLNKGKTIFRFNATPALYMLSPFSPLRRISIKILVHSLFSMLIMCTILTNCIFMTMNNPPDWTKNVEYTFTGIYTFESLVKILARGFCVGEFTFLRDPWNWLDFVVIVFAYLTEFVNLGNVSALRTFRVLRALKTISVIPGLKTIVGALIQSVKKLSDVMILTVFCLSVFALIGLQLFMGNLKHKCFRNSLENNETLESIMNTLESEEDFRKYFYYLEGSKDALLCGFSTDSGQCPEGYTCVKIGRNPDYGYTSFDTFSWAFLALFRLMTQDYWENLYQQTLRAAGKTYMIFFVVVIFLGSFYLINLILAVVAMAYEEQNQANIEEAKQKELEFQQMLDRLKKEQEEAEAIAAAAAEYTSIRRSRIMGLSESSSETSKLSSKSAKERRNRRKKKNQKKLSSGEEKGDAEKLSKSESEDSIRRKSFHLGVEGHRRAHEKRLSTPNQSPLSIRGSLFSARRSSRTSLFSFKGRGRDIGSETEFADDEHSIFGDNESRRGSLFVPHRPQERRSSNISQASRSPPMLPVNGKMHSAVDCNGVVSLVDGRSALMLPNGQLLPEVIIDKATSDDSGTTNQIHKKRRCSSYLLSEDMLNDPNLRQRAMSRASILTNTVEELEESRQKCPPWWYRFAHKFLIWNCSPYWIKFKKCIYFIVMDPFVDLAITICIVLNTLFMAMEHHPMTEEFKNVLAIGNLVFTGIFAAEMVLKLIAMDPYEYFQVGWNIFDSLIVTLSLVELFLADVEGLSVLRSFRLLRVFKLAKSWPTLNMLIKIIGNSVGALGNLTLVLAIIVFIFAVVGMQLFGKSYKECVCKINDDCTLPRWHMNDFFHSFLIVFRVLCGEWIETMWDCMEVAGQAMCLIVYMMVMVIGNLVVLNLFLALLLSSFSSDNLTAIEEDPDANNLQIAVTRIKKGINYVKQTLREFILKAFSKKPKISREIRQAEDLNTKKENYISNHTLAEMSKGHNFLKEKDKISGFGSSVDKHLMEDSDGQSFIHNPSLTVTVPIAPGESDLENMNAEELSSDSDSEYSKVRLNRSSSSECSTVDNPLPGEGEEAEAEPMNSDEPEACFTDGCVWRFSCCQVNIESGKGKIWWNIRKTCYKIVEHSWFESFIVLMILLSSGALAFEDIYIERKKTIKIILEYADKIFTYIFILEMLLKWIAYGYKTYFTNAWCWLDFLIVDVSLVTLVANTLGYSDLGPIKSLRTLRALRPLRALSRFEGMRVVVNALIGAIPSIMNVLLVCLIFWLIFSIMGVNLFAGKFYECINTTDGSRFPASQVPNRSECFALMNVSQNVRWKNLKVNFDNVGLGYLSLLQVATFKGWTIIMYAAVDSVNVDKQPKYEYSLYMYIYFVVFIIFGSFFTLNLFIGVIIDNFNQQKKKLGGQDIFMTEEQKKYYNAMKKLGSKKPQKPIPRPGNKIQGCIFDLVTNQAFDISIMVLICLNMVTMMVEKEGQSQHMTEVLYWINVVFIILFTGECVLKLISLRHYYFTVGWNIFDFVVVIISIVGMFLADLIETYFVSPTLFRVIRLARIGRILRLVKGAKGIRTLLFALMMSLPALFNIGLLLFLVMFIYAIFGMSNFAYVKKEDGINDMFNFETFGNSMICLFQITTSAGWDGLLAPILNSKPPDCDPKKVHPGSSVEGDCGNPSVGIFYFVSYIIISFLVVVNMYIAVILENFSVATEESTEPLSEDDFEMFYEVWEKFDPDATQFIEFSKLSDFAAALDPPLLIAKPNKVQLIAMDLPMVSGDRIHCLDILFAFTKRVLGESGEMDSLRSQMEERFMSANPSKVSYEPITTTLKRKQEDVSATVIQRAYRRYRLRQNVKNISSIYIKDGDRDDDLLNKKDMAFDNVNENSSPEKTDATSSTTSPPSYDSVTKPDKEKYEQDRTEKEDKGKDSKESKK
The experiment in a line: Nav1.7 Ionworks Quattro automated electrophysiology in HEK cells expressing hSCN9A. The settings on record: estimated IC50, values marked (IW), Ionworks Quattro assay, read-out: Nav1.7 EIC50 (IW). Type of assay: cell-based. The procedure:
The ability of the compounds of formula (I) to block the Nav1.7 (or SCN9A) channel were measured using the assay described below. Human Embryonic Kidney (HEK) cells were transfected with an hSCN9A construct using lipofectamine reagent (Invitrogen), using standard techniques. Cells stably expressing the hSCN9A constructs were identified by their resistance to G-418 (400 μg/ml). Clones were screened for expression using the whole-cell voltage-clamp technique. HEK cells stably transfected with hSCN9A were maintained in DMEM medium supplemented with 10% heat-inactivated fetal bovine serum and 400 μg/ml G-418 in an incubator at 37° C. with a humidified atmosphere of 10% CO2. For HTS, cells were harvested from flasks by trypsinization and replated in an appropriate multi-well plate (typically 96 or 384 wells/plate) such that confluence would be achieved within 24 hours of plating. For electrophysiological studies, cells were removed from the culture flask by brief trypsinization and re-plated at low density onto glass cover slips. Cells were typically used for electrophysiological experiments within 24 to 72 hours after plating. Electrophysiological assays were also conducted using the Ionworks Quattro automated electrophysiological platform (Molecular Devices Corp). Intracellular and extracellular solutions were as described above with the following changes, 120 μg/ml amphotericin was added to the intracellular solution to perforate the membrane and allow electrical access to the cells. hSCN9A cells were grown and harvested as for PatchXpress and cells were resuspended in extracellular solution at a concentration of 1×10^6 cells/ml. The onboard liquid handling facility of the Ionworks Quattro was used for dispensing cells and application of test compounds. A voltage protocol was then applied that comprised of a voltage step to fully inactivate the sodium channels, followed by a brief hyperpolarized recovery period to allow partial recovery from inactivation for unblocked sodium channels, followed by a test depolarized voltage step to assess magnitude of inhibition by test compound. Compound effect was determined based on current amplitude difference between the pre-compound addition and post-compound addition scans. Compounds of the Examples were tested in the assays described above and found to have the Nav1.7 EIC50 (uM) values specified in the table below. All data are derived from the PatchXpress assay unless expressly stated otherwise.
With `CS(=O)(=O)NC(=O)c1ccc(Oc2ccc(Cl)cc2)c(-c2cccc(C(F)(F)F)c2)c1` [Example 13, 6-(4-chlorophenoxy)-N-(methylsulfonyl)-3′-(trifluoromethyl)biphenyl-3-carboxamide], the IC50 was 24 µM.
Consider `CS(=O)(=O)NC(=O)c1ccc(Oc2ccc(Cl)cc2)c(-c2cccc(F)c2)c1` [Example 17, 6-(4-chlorophenoxy)-3′-fluoro-N-(methylsulfonyl)-biphenyl-3-carboxamide], for which the IC50 is 13 µM.
The figure for `CS(=O)(=O)NC(=O)c1ccc(Oc2ccc(Cl)cc2)c(-c2cccnc2)c1` [Example 19, 4-(4-chlorophenoxy)-N-(methylsulfonyl)-3-pyridin-3-ylbenzamide] is 28 µM; for `CS(=O)(=O)NC(=O)c1ccc(Oc2ccc(Cl)cc2)c(-c2cccc(Cl)c2)c1` [Example 22, 3′-chloro-6-(4-chlorophenoxy)-N-(methylsulfonyl)-biphenyl-3-carboxamide] it is 15 µM; for `CS(=O)(=O)NC(=O)c1ccc(Oc2ccc(Cl)cc2)c(-c2ccc(C#N)cc2)c1` [Example 25, 6-(4-chlorophenoxy)-4′-cyano-N-(methylsulfonyl)-biphenyl-3-carboxamide] it is 10 µM.
The figure for `CS(=O)(=O)NC(=O)c1ccc(Oc2ccc(Cl)cc2)c(-c2cccc(C#N)c2)c1` [Example 26, 6-(4-chlorophenoxy)-3′-cyano-N-(methylsulfonyl)-biphenyl-3-carboxamide] is 17 µM; for `CS(=O)(=O)NC(=O)c1ccc(Oc2ccc(Cl)cc2)c(-c2cccc(OC(F)(F)F)c2)c1` [Example 28, 6-(4-chlorophenoxy)-N-(methylsulfonyl)-3′-(trifluoromethoxy)biphenyl-3-carboxamide] it is 16 µM; for `CS(=O)(=O)NC(=O)c1ccc(Oc2ccc(Cl)cc2)c(-c2cn[nH]c2)c1` [Example 30, 4-(4-chlorophenoxy)-N-(methylsulfonyl)-3-(1H-pyrazol-4-yl)benzamide] it is 18 µM.
`COc1ncc(-c2cc(C(=O)NS(C)(=O)=O)ccc2Oc2ccc(Cl)cc2)cn1` [Example 40, 4-(4-chlorophenoxy)-3-(2-methoxypyrimidin-5-yl)-N-(methylsulfonyl)benzamide]: the IC50 was 69 µM.
Consider `CS(=O)(=O)NC(=O)c1ccc(Oc2ccc(Cl)cc2)c(-c2cncc(C#N)c2)c1` [Example 44, 4-(4-chlorophenoxy)-3-(5-cyanopyridin-3-yl)-N-(methylsulfonyl)benzamide], for which the IC50 was 17 µM.
The figure for `Cc1ncc(-c2cc(C(=O)NS(C)(=O)=O)ccc2Oc2ccc(Cl)cc2)cn1` [Example 46, 4-(4-chlorophenoxy)-3-(2-methylpyrimidin-5-yl)-N-(methylsulfonyl)benzamide] is 151 µM.
